Reference: US20170190705A1, “Compositions and Methods for Inhibiting BMP” (THE BRIGHAM AND WOMAN'S HOSPITAL, INC., priority 2014, published 2017)
Read-outs that look alike come from different tables or passages of the source.

Columns and labels:
Format in all cases: biochemical
MAPKAPK2 = MAPKAPK2 (Homo sapiens, UniProt P49137); assay: Kinome profiling MAPKAPK2; details: read-out: Inhibitory activity MAPKAPK2; for inhibition at 0.1 µM: 100 nM
Procedure: (§1) . The kinome-wide selectivity was determined following the methods previously reported by Mohedas et al., ACS Chem Biol 2013, 8, 1291-1302 and Sanvitale et al., PLoS One 2013, 8, e62721.

ARK5 = biological target: T1, ARK5 (Homo sapiens, UniProt O60285); assay: Kinome profiling ARK5; details: read-out: Inhibitory activity ARK5; for inhibition at 0.1 µM: 100 nM
T1 sequence (O60285 1-661): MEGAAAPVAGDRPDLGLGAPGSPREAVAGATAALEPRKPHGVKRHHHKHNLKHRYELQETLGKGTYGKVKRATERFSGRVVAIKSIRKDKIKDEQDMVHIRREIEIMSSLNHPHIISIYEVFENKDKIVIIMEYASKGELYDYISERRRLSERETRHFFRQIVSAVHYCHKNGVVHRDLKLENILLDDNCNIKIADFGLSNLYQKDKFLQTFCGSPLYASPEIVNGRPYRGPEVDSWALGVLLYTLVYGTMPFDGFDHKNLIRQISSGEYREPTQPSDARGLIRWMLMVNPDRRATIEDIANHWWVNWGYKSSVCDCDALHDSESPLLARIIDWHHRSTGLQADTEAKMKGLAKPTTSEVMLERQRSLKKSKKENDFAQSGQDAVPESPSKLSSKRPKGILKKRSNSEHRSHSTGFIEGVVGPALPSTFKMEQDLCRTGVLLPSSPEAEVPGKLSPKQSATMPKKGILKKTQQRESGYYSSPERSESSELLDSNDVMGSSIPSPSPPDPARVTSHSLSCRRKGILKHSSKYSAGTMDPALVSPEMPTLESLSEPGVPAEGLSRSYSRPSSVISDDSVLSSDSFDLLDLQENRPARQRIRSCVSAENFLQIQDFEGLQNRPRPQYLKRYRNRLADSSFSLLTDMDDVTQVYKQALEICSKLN
Procedure: as §1

MAP4K4 = MAP4K4 (Homo sapiens, UniProt O95819); assay: Kinome profiling MAP4K4; details: for inhibition at 0.1 µM: 100 nM
Procedure: as §1

MST1 = biological target: T2, MST1 (Homo sapiens, UniProt Q13043); assay: Kinome profiling MST1; details: read-out: Inhibitory activity MST1; for inhibition at 0.1 µM: 100 nM
T2 sequence (Q13043 1-487): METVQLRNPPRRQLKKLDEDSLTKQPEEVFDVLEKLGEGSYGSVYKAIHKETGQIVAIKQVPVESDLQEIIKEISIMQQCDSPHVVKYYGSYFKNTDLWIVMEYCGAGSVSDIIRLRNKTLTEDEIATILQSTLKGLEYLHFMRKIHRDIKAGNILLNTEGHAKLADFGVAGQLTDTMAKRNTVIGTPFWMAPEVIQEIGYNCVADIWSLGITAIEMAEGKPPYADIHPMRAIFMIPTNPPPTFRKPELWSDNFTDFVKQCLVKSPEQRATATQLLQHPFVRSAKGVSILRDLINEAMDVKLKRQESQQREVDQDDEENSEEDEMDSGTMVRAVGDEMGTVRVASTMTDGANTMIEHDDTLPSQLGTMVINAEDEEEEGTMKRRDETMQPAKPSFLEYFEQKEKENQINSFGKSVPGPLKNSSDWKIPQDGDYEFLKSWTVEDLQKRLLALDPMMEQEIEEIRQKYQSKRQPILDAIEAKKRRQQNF
Procedure: as §1

MSK2 = MSK2 (Homo sapiens, UniProt O75676); assay: Kinome profiling MSK2; details: read-out: Inhibitory activity MSK2; for inhibition at 0.1 µM: 100 nM
Procedure: as §1

SRMS = SRMS (Homo sapiens, UniProt Q9H3Y6); assay: Kinome profiling SRMS; details: read-out: Inhibitory activity SRMS; for inhibition at 0.1 µM: 100 nM
Procedure: as §1

AKT3 = AKT3 (Homo sapiens, UniProt Q9Y243); assay: Kinome profiling AKT3; details: read-out: Inhibitory activity AKT3; for inhibition at 0.1 µM: 100 nM
Procedure: as §1

MARK3 = MARK3 (Homo sapiens, UniProt P27448); assay: Kinome profiling MARK3; details: read-out: Inhibitory activity MARK3; for inhibition at 0.1 µM: 100 nM
Procedure: as §1

SPHK1 = SPHK1 (Homo sapiens, UniProt Q9NYA1); assay: Kinome profiling SPHK1; details: read-out: Inhibitory activity SPHK1; for inhibition at 0.1 µM: 100 nM
Procedure: as §1

ROCK2 = ROCK2 (Homo sapiens, UniProt O75116); assay: Kinome profiling ROCK2; details: read-out: Inhibitory activity ROCK2; for inhibition at 0.1 µM: 100 nM
Procedure: as §1

[1] = Table 4, read-out: Inhibitory Activity MAP4K4
[2] = read-out: Inhibitory activity MAP4K4

Chain of MAPKAPK2 (P49137 whole entry): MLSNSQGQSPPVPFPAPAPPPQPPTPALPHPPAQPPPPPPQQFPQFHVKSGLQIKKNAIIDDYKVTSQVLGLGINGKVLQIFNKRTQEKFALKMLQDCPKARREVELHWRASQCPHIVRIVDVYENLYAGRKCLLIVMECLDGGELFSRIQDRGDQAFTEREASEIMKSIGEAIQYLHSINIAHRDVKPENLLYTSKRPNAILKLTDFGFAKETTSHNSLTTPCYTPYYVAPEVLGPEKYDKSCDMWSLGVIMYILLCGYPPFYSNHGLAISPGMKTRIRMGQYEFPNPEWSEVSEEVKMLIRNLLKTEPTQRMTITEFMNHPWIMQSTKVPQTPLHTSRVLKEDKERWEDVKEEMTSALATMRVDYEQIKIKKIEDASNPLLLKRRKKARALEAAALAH
Chain of MARK3 (P27448 whole entry): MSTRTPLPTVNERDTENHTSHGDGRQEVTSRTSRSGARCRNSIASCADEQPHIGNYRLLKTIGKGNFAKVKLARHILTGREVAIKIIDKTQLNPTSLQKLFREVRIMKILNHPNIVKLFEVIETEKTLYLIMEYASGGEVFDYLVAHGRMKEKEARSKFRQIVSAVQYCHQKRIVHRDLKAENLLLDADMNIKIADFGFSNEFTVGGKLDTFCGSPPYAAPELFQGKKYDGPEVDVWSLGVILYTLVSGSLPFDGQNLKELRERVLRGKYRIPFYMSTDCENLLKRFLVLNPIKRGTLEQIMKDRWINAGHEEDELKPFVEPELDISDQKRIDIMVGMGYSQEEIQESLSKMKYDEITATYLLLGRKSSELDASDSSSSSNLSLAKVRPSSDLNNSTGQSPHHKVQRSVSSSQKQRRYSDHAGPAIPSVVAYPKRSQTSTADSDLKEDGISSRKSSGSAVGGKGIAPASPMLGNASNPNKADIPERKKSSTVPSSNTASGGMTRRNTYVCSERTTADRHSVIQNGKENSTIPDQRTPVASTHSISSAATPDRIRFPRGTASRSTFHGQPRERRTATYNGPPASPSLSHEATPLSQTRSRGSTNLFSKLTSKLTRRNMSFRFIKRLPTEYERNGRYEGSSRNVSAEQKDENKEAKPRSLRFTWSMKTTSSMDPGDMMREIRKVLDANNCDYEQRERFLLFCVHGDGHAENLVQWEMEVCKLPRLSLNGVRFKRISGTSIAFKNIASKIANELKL
Chain of MSK2 (O75676 whole entry): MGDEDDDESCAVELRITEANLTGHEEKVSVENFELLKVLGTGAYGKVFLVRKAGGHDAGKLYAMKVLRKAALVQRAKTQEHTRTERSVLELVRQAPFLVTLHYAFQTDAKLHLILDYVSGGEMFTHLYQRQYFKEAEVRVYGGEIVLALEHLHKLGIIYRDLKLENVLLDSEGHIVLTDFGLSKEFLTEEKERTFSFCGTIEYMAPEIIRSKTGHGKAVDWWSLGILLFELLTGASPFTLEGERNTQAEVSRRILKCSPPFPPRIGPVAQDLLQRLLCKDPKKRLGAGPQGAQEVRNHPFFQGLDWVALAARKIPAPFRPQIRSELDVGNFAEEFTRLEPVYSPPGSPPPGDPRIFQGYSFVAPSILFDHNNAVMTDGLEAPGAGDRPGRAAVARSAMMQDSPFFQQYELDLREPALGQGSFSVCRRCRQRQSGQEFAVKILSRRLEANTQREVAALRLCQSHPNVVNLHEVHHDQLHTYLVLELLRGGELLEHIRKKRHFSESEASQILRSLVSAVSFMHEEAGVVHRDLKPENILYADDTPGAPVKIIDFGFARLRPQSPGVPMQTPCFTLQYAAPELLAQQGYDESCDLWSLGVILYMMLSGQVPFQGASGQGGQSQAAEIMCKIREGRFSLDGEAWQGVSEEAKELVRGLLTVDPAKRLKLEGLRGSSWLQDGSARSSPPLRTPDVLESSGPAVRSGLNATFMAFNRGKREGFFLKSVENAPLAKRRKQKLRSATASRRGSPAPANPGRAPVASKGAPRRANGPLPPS
Chain of ROCK2 (O75116 whole entry): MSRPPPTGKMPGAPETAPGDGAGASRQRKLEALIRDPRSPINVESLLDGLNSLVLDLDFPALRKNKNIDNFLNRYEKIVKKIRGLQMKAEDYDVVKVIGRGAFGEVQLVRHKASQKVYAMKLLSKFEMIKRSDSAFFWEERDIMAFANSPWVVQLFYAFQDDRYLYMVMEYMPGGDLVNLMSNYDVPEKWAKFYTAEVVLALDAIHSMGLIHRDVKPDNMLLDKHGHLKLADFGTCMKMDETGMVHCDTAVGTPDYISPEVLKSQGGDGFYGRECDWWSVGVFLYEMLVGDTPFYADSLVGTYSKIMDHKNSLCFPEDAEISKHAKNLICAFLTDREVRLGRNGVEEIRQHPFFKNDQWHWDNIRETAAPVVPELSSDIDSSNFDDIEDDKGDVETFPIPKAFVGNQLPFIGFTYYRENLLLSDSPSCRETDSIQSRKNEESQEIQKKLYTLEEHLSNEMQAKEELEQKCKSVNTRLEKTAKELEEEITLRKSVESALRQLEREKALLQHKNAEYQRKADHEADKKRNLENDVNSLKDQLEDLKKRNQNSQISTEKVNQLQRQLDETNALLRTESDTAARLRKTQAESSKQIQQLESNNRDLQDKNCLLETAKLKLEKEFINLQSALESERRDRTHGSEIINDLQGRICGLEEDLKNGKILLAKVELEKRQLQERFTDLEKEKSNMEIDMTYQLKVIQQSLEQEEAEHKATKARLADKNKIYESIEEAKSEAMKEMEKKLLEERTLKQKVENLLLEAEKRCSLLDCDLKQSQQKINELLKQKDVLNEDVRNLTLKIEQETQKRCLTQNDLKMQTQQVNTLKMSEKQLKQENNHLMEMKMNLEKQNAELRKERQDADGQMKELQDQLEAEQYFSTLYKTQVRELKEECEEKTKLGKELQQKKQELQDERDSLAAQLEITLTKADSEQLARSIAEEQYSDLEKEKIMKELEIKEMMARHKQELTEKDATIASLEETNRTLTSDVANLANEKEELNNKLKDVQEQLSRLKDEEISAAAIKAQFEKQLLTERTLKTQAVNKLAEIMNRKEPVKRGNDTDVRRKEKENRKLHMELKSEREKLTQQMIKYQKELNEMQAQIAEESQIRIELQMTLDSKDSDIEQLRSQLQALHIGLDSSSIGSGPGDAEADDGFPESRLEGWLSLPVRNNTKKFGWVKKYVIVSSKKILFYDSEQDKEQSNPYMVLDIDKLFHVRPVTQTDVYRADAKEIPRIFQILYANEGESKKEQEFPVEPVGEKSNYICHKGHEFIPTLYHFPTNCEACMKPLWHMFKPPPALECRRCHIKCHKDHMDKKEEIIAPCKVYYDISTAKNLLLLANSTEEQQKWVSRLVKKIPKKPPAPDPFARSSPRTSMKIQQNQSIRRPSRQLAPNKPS
Chain of SRMS (Q9H3Y6 whole entry): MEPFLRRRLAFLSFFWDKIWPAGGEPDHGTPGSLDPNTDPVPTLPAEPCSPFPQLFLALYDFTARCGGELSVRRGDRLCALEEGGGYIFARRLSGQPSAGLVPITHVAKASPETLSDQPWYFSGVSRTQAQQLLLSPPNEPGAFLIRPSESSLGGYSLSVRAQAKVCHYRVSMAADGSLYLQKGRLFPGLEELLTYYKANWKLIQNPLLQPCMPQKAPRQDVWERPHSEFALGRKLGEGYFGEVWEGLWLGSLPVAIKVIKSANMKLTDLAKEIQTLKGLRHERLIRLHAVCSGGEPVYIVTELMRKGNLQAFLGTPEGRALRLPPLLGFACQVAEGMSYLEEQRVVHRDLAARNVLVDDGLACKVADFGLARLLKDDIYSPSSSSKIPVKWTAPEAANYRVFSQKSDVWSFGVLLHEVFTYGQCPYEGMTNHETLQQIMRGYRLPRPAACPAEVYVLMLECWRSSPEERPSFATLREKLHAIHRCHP
Chain of SPHK1 (Q9NYA1 whole entry): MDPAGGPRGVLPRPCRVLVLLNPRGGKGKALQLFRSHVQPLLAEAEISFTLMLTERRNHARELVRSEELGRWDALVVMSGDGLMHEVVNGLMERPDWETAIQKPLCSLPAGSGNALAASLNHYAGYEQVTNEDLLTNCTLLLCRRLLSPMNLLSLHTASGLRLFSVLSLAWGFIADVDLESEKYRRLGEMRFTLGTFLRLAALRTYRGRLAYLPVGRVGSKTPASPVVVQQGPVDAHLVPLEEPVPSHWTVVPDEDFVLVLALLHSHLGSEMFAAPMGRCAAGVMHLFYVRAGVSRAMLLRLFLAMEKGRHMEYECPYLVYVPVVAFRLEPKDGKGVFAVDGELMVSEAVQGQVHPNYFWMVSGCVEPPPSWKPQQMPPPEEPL
Chain of AKT3 (Q9Y243 whole entry): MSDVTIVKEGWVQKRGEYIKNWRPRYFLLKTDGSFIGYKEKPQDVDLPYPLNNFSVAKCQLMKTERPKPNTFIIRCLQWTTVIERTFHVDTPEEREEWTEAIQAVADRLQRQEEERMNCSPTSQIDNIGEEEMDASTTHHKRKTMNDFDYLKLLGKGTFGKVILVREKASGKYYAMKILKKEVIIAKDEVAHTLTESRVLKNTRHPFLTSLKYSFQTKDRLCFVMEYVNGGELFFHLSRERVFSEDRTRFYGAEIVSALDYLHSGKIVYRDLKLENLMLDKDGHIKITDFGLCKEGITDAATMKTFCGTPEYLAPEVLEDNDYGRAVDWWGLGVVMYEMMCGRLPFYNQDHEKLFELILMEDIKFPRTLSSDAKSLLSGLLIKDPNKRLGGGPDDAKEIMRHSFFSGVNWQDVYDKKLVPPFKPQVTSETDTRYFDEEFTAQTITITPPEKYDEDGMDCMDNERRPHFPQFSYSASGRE

COc1cc(-c2cc(-c3ccc(N4CCNCC4)cc3)cnc2C)cc(OC)c1OC [Compound 10, 1-(4-(6-methyl-5-(3,4,5-trimethoxyphenyl)pyridin-3-yl)phenyl)piperazine]
inhibition at 0.1 µM (MAPKAPK2): 4% | inhibition at 1 µM (MAPKAPK2): 4% | inhibition at 0.1 µM (ARK5): 1% | inhibition at 1 µM (ARK5): 1% | inhibition at 0.1 µM (MAP4K4; [1]): 34% | inhibition at 0.1 µM (MAP4K4; [2]): 34% | inhibition at 1 µM (MAP4K4; [1]): 92% | inhibition at 1 µM (MAP4K4; [2]): 92% | inhibition at 0.1 µM (MST1): 3% | inhibition at 1 µM (MST1): 3% | inhibition at 0.1 µM (MSK2): 0% | inhibition at 1 µM (MSK2): 1% | inhibition at 0.1 µM (SRMS): 0% | inhibition at 1 µM (SRMS): 1% | inhibition at 0.1 µM (AKT3): 1% | inhibition at 1 µM (AKT3): 1% | inhibition at 0.1 µM (MARK3): 0% | inhibition at 1 µM (MARK3): 3% | inhibition at 0.1 µM (SPHK1): 0% | inhibition at 1 µM (SPHK1): 0% | inhibition at 0.1 µM (ROCK2): 4% | inhibition at 1 µM (ROCK2): 3%

COc1cc(-c2cc(-c3ccc(N4CCNCC4)cc3)cnc2N)cc(OC)c1OC [Compound 15, 5-(4-(piperazin-1-yl)phenyl)-3-(3,4,5-trimethoxyphenyl)pyridin-2-amine]
inhibition at 0.1 µM (MAPKAPK2): 0% | inhibition at 1 µM (MAPKAPK2): -4% | inhibition at 0.1 µM (ARK5): 2% | inhibition at 1 µM (ARK5): 8% | inhibition at 0.1 µM (MAP4K4; [2]): 77% | inhibition at 1 µM (MAP4K4; [2]): 90% | inhibition at 0.1 µM (MST1): 3% | inhibition at 1 µM (MST1): 10% | inhibition at 0.1 µM (MSK2): 1% | inhibition at 1 µM (MSK2): -1% | inhibition at 0.1 µM (SRMS): 11% | inhibition at 1 µM (SRMS): 33% | inhibition at 0.1 µM (AKT3): 0% | inhibition at 1 µM (AKT3): 2% | inhibition at 0.1 µM (MARK3): 4% | inhibition at 1 µM (MARK3): 48% | inhibition at 0.1 µM (SPHK1): 2% | inhibition at 1 µM (SPHK1): -12% | inhibition at 0.1 µM (ROCK2): -1% | inhibition at 1 µM (ROCK2): 2%
